Assay [1] concerns MCF-7 Cell line. The assay is described as follows: Cell growth inhibition of cancer cell lines (SRB assay), MCF-7. The assay is classed as cell-based. The conditions noted are these: for SN-38 PF50 / Temozolomide PF50: 2 μM compound; for GI50: Homo sapiens, MCF7, 72 hours. Here is the method: (§1) The tests on cell growth inhibitory activity were performed with respect to A549 (US, ATCC), SK-OV-3 (Korea Research Institute of Chemical Technology; KRICT), HT-29 (US, ATCC), MCF-7 cell (US, ATCC), using Sulforhodamin-B <SRB> Assay (1989, US National Cancer Institute (NCI)) which was developed to measure the in vitro anti-cancer activity of the drug. […] The samples of the compounds of the Examples according to the present invention were used for the tests, and before the tests, the samples were dissolved in dimethylsulfoxide and diluted with the culture medium (RPMI 1640) to be used. The final concentration of the sample was varied in the range of 0.3˜100 μM. After the culture medium was removed from the 96 well plates, the diluted sample solution was added by 100 μl, and cultured in 37° C., 5% CO2 culture medium for 72 hours. The time zero (Tz) plates were collected at the time point of adding the sample. Upon completing the culture, the medium was removed from each well along with Tz plate, then cold 10% trichloroacetic acid (TCA) was added by 100 μl per well. The wells were left at 4° C. for 1 hour, so that the cells were fixed into the bottom of the plates. After the cells were fixed, the plates were rinsed with water five to six times to remove the remaining trichloroacetic acid solution, and moisture was completely dried at room temperature. The cells were dyed for 30 minutes by adding the dye solution in which 0.4% sulforhodamine-B was dissolved in 1% acetic acid solution, by 100 μl per dried wells. The above was rinsed again with 1% acetic acid solution five to six times to ensure that sulforhodamine-B which had not attached to the cells was removed. The plates were again dried at room temperature. 100 μl of 10 mM tris-buffer was then added to dissolve the dye, and the optical density (OD) at 520 nm was measured with the microplate reader. GI50 of the sample regarding cancer cell was calculated as explained below. Time zero (Tz), control value (C) and test value (T) were obtained, in which Tz corresponds to OD value of time at which the sample is applied and culture is started, C corresponds to OD value of the well which is cultured without treatment with the sample, and T corresponds to OD value of the well which is treated with the sample and then cultured. The degree of cell growth inhibition of the sample was measured using: If […] [Mathematical Formula 1]
(§2) Further, the ability of Examples 2, 42, 49, 52, 72, 74, 101 to increase growth inhibition effect of temozolomide and SN-38 at 2 μM was determined.

Assay [2] has as its system SK-OV-3 Cell line. The assay is described as follows: Cell growth inhibition of cancer cell lines (SRB assay), SK-OV-3. The conditions noted are these: for SN-38 PF50 / Temozolomide PF50: 2 μM compound; for GI50: Homo sapiens, 72 hours. The assay is classed as cell-based. The protocol: as §1, §2
Assay [3] concerns HT-29 Cell line. The assay can be described thus: Cell growth inhibition of cancer cell lines (SRB assay), HT-29. Format: cell-based. The conditions noted are these: for SN-38 PF50 / Temozolomide PF50: 2 μM compound; for GI50: Homo sapiens, 72 hours. The protocol: as §1, §2
Assay [4] relates to A549 cell line. The assay is described as follows: Cell growth inhibition of cancer cell lines (SRB assay), A549. The assay is classed as cell-based. To be noted: for SN-38 PF50 / Temozolomide PF50: 2 μM compound; for SN-38 PF50: GI50 SN-38 alone / GI50 with compound; for Temozolomide PF50: GI50 temozolomide alone / GI50 with compound; for GI50: Homo sapiens, 72 hours. The protocol: as §1, §2

Assay [5] deals with PARP-1 enzyme (Homo sapiens (Human), UniProt P09874). The assay can be described thus: Poly(ADP-ribose)polymerase [PARP-1] enzyme inhibitory activity (Trevigen PARP Assay kit). The assay is classed as biochemical. The conditions noted are these: read-out: PARP-1 Inhibitory activity IC50. Summed up: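 On histone-coated plates, PARP-1 (0.12 unit/well) reacted with compound for 30 min at 25 °C in a 2× cocktail of 1.95 mM NAD+, 50 μM biotinylated NAD+ and activated DNA (Tris pH 8.0, 25 mM MgCl2). Biotin-ribosylated histone was detected with streptavidin-HRP and TACS-Sapphire substrate, stopped with HCl and read at 450 nm.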
Chain of PARP-1 enzyme (Homo sapiens (Human), UniProt P09874) (P09874 whole entry): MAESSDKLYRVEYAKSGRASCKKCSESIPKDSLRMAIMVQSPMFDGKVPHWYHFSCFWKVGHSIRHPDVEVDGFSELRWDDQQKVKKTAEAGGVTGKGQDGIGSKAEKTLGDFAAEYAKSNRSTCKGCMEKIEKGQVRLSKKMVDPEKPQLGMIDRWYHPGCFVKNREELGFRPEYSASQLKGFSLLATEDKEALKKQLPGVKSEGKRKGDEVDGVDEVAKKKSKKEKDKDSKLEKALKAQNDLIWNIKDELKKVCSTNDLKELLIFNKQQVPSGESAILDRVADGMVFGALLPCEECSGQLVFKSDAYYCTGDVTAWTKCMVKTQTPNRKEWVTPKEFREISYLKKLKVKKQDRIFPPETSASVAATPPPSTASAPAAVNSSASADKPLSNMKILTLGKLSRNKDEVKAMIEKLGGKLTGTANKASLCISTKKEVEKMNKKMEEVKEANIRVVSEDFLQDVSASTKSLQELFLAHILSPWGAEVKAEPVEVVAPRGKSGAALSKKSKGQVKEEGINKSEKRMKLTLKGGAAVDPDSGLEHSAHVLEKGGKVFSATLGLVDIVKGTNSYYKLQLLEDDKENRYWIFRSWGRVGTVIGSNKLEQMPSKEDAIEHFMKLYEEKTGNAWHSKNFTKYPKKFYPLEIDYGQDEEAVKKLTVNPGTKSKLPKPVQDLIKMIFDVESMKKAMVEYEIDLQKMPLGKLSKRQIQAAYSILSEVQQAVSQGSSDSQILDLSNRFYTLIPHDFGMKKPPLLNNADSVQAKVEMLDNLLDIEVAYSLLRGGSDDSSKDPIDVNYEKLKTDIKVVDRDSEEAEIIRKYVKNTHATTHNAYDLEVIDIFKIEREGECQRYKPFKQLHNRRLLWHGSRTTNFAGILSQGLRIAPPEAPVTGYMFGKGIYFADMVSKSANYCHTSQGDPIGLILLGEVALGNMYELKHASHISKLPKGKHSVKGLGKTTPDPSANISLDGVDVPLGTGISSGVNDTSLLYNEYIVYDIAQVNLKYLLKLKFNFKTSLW

Assay [6] deals with PARP-1 enzyme (Cricetulus griseus (Chinese hamster) (Cricetulus barabensis griseus), UniProt Q9R152). The assay is described as follows: Intracellular PARP inhibitory activity (NAD(P)H released by MMS-treated CHO-K1 cells). The assay is classed as cell-based. The protocol: In order to verify the ability of the compounds of the present invention to inhibit the PARP-1 enzyme activity, the amount of NAD(P)H accumulated on cell culture medium was measured.
Chain of PARP-1 enzyme (Cricetulus griseus (Chinese hamster) (Cricetulus barabensis griseus), UniProt Q9R152) (Q9R152 whole entry): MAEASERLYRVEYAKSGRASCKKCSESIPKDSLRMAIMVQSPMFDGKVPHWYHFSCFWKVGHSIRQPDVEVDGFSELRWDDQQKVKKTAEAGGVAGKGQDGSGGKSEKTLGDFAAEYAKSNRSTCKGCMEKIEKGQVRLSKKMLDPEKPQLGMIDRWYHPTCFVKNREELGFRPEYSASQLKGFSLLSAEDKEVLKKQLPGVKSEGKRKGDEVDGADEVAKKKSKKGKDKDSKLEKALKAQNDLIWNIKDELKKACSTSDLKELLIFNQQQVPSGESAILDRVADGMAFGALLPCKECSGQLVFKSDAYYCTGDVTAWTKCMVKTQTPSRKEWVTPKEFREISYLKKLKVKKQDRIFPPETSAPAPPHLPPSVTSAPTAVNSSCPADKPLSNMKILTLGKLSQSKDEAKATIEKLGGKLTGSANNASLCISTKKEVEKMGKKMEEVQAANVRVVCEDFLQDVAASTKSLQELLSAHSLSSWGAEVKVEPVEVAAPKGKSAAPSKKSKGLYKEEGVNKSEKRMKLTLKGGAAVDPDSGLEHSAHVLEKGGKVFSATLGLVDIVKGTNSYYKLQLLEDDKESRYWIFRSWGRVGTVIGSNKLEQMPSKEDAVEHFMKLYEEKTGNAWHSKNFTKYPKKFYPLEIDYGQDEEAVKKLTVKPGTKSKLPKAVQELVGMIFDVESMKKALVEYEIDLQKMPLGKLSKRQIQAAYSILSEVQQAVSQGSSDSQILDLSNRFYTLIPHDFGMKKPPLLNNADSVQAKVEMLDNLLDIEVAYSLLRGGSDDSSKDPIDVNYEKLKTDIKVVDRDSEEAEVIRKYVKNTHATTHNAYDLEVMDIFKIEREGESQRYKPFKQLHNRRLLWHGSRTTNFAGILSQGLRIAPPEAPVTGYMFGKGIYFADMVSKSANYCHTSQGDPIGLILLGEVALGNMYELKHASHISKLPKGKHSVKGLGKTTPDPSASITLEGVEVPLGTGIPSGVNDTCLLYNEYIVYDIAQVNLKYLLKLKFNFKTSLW
The Chinese hamster ovary cells (CHO-K1) were cultured in RPMI1640 culture medium containing 10% fetal bovine serum (FBS). The cultured CHO-K1 cells were seeded into 96 well plate by 2.9×10^3 cells/well, and cultured for 16 hours under culture condition of 37° C., 5% CO2. After the culture, the cells were treated with the compounds of the Examples at varying concentrations, and cultured at 37° C. for 2 hours. […] The amount of […] released to the culture medium 3, 4, 5 hours after the treatment with MMS was quantified at 450 nm using Wallac EnVision™ (PerkinElmer Oy, Turku, Finland). The transference numbers of the compounds at varying concentrations according to the present invention are the average values obtained from four wells, and the results were calculated using regression analysis.
The Chinese hamster ovary cells (CHO-K1) were treated with the compounds at varying concentration according to the present invention, and the amount of NAD(P)H released into the culture medium 4 hours after the MMS treatment was quantified.

Setting [7] is: PARP-1 enzyme, histone ribosylation, 450 nm.

Molecules are shown by their SMILES. Structures can show the parent of a compound that is named as a salt. Where two headings read alike, the source gives them in different places.

For `O=c1[nH]c2ccc(OCCCCN3CCCCC3)cc2c2c1CCCN2` [Example 29, 9-[4-(Piperidine-1yl)butoxy]-1,2,3,4-tetrahydrobenzo[h][1,6]naphthyridine-5(6H)-one dihydrochloride], the “SN-38 PF50” value was 2.2 in assay [1], 1.5 in assay [2], 1.5 in assay [3] and 1.5 in assay [4]. Further, the “Temozolomide PF50” value in assay [1] was 2.1; in assay [2] it was >1.7; in assay [3] it was >1.2; in assay [4] it was 2.0. The GI50 in assay [1] was > 100000 nM; in assay [2], > 100000 nM; in assay [3], 91000 nM; in assay [4] it was > 100000 nM. Besides, in assay [5], the IC50 came to 2850 nM.

With `O=c1[nH]c2cc(CN3CCCCC3)ccc2c2c1CCCN2` [Example 48, 8-(Piperidine-1-ylmethyl)-1,2,3,4-tetrahydrobenzo[h][1,6]naphthyridine-5(6H)-one dihydrochloride], the IC50 in assay [6] worked out at 430 nM; in assay [5], 130 nM.

For the molecule `CNCc1ccc2c3c(c(=O)[nH]c2c1)CCCN3` [Example 52, 8-[(Methylamino)methyl]-1,2,3,4-tetrahydrobenzo[h][1,6]naphthyridine-5(6H)-one dihydrochloride], the “SN-38 PF50” value in assay [1] was found to be 1.1; in assay [2] it was 1.4; in assay [3] it was 1.4; in assay [4], 2.2. Also, the “Temozolomide PF50” value in assay [1] is 1.5; in assay [2] it was >2.2; in assay [3], >1.3; in assay [4], 1.5. Besides, the 50% growth inhibitory concentration (GI50) was > 100000 nM in assay [1], > 100000 nM in assay [2], 90000 nM in assay [3] and > 100000 nM in assay [4]. Moreover, in assay [5], the IC50 came to 70 nM.

Consider `CN(CCO)Cc1ccc2c3c(c(=O)[nH]c2c1)CCCN3` [Example 53, 8-{[(2-Hydroxyethyl)(methyl)amino]methyl}-1,2,3,4-tetrahydrobenzo[h][1,6]naphthyridine-5(6H)-one dihydrochloride], for which the results for the half-maximal inhibitory concentration (IC50) in assay [6] and in assay [5] were 290 nM and 50 nM, respectively.

Consider `CCCN(C)Cc1ccc2c3c(c(=O)[nH]c2c1)CCCN3` [Example 56, 8-[(Methyl(propyl)amino)methyl]-1,2,3,4-tetrahydrobenzo[h][1,6]naphthyridine-5(6H)-one dihydrochloride], for which the figures for the 50% inhibitory concentration (IC50) in assay [6] and in assay [5] were 470 nM and 180 nM, respectively.

For `CN(C)Cc1ccc2c3c(c(=O)[nH]c2c1)CCCN3C` [Example 66, 8-[(Dimethylamino)methyl]-1-methyl-1,2,3,4-tetrahydrobenzo[h][1,6]naphthyridine-5(6H)-one dihydrochloride], the 50% inhibitory concentration (IC50) in assay [6] is 320 nM; in assay [5] (setting [7]), < 1000 nM; in assay [5] it was 90 nM.

In the case of `CNCc1cc(OC)c2c3c(c(=O)[nH]c2c1)CCCN3` [Example 73, 10-Methoxy-8-[(methylamino)methyl]-1,2,3,4-tetrahydrobenzo[h][1,6]naphthyridine-5(6H)-one dihydrochloride], the IC50 in assay [6] came to 1390 nM; in assay [5], 100 nM.

As to `COc1cc(CNC(C)(C)C)cc2[nH]c(=O)c3c(c12)NCCC3` [Example 87, 8-[(t-Butylamino)methyl]-10-methoxy-1,2,3,4-tetrahydrobenzo[h][1,6]naphthyridine-5(6H)-one dihydrochloride], the concentration for half-maximal inhibition (IC50) came to 820 nM in assay [6] and 610 nM in assay [5].

On to `CCOc1cc(CNC)cc2[nH]c(=O)c3c(c12)NCCC3` [Example 103, 10-Etoxy-8-[(methylamino)methyl]-1,2,3,4-tetrahydrobenzo[h][1,6]naphthyridine-5(6H)-one dihydrochloride], for which the values for the IC50 in assay [6] and in assay [5] (setting [7]) were 820 nM and 120 nM, respectively.

On to `CCNCc1cc(OCC)c2c3c(c(=O)[nH]c2c1)CCCN3` [Example 104, 10-Etoxy-8-[(ethylamino)methyl]-1,2,3,4-tetrahydrobenzo[h][1,6]naphthyridine-5(6H)-one dihydrochloride], for which the concentration for half-maximal inhibition (IC50) is 1650 nM in assay [6] and 60 nM in assay [5] (setting [7]).

For the molecule `COc1cc(CN2CCSCC2)cc2[nH]c(=O)c3c(c12)NCCC3` [Example 106, 10-Methoxy-8-(thiomorpholinomethyl)-1,2,3,4-tetrahydrobenzo[h][1,6]naphthyridine-5(6H)-one dihydrochloride], the IC50 in assay [6] came to 290 nM; in assay [5], 90 nM.

As to `COc1cc(CN2CCC(N3CCOCC3)CC2)cc2[nH]c(=O)c3c(c12)NCCC3` [Example 108, 10-Methoxy-8-[(4-morpholinopiperidine-1-yl)methyl]-1,2,3,4-tetrahydrobenzo[h][1,6]naphthyridine-5(6H)-one trihydrochloride], the results for the concentration for half-maximal inhibition (IC50) in assay [6] and in assay [5] were 110 nM and 140 nM, respectively.

In the case of `COc1cc(CN)cc2[nH]c(=O)c3c(c12)NCCC3` [Example 109, 8-(Aminomethyl)-10-methoxy-1,2,3,4-tetrahydrobenzo[h][1,6]naphthyridine-5(6H)-one dihydrochloride], the half-maximal inhibitory concentration (IC50) turned out to be 940 nM in assay [6] and 70 nM in assay [5].

`CCCOc1cc(CN(C)C)cc2[nH]c(=O)c3c(c12)NCCC3` [Example 110, 8-[(Dimethylamino)methyl)]-10-propoxy-1,2,3,4-tetrahydrobenzo[h][1,6]naphthyridine-5(6H)-one dihydrochloride]: the IC50 amounted to 90 nM in assay [6] and 80 nM in assay [5] (setting [7]).

Take `CCCOc1cc(CN2CCOCC2)cc2[nH]c(=O)c3c(c12)NCCC3` [Example 111, 8-(Morpholinomethyl)-10-propoxy-1,2,3,4-tetrahydrobenzo[h][1,6]naphthyridine-5(6H)-one dihydrochloride]: the IC50 in assay [6] was found to be 1330 nM; in assay [5], 960 nM.

`CCOc1cc(CN)cc2[nH]c(=O)c3c(c12)NCCC3` [Example 113, 8-(Aminomethyl)-10-etoxy-1,2,3,4-tetrahydrobenzo[h][1,6]naphthyridine-5 (6H)-one dihydrochloride]: the IC50 in assay [6] was found to be 1430 nM; in assay [5] (setting [7]) it was 100 nM.

Regarding `CCCOc1cc(CN)cc2[nH]c(=O)c3c(c12)NCCC3` [Example 114, 8-(Aminomethyl)-10-propoxy-1,2,3,4-tetrahydrobenzo[h][1,6]naphthyridine-5(6H)-one dihydrochloride], the 50% inhibitory concentration (IC50) in assay [6] was 1920 nM; in assay [5], 190 nM.

For the molecule `COCCOc1cc(CN2CCOCC2)cc2[nH]c(=O)c3c(c12)NCCC3` [Example 117, 10-(2-Methoxyetoxy)-8-(morpholinomethyl)-1,2,3,4-tetrahydrobenzo[h][1,6]naphthyridine-5(6H)-one dihydrochloride], the concentration for half-maximal inhibition (IC50) in assay [6] worked out at 6320 nM; in assay [5] (setting [7]) it was 610 nM.

Values taken from patent publication US8815891B2, “Tricyclic derivative or pharmaceutically acceptable salts thereof, preparation method thereof, and pharmaceutical composition containing the same” (Je Il Pharmaceutical Co., Ltd., priority 2008, dated 2014).
